From PubChem BioAssay (NCI)
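96-well plates; 48 h exposure; 5 concentrations. Endpoints by linear interpolation between flanking doses. Not reached: highest tested concentration assigned. GI50 = concentration required for 50% inhibition of growth. The concentration for full growth arrest is given as TGI.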

How the values were obtained:
Test in all cases: inhibition of tumour cell growth, NCI panel, 48 h
[1] = tested on: CAKI-1 renal
[2] = tested on: SNB-19 CNS
[3] = tested on: CCRF-CEM leukemia
[4] = tested on: UACC-62 melanoma
[5] = tested on: KM12 colon
[6] = tested on: HCT-15 colon
[7] = tested on: A498 renal
[8] = tested on: RPMI-8226 leukemia
[9] = tested on: U251 CNS
[10] = tested on: SK-MEL-2 melanoma
[11] = tested on: DU-145 prostate
[12] = tested on: SF-295 CNS
[13] = tested on: IGROV1 ovarian
[14] = tested on: NCI-H226 lung
[15] = tested on: SK-MEL-5 melanoma
[16] = tested on: SR leukemia
[17] = tested on: SK-OV-3 ovarian
[18] = tested on: COLO 205 colon
[19] = tested on: SNB-75 CNS
[20] = tested on: MALME-3M melanoma
[21] = tested on: A549 NSCLC
[22] = tested on: HS 578T breast
[23] = tested on: MDA-MB-231 breast
[24] = tested on: SW-620 colon
[25] = tested on: 786-0 renal
[26] = tested on: SN12C renal
[27] = tested on: OVCAR-4 ovarian
[28] = tested on: MCF7 breast
[29] = tested on: HL-60(TB) leukemia
[30] = tested on: HOP-92 NSCLC
[31] = tested on: HCT-116 colon
[32] = tested on: TK-10 renal
[33] = tested on: HOP-62 NSCLC
[34] = tested on: OVCAR-8 ovarian
[35] = tested on: PC-3 prostate
[36] = tested on: MOLT-4 leukemia
[37] = tested on: HCC-2998 colon
[38] = tested on: ACHN renal
[39] = tested on: NCI-H460 lung
[40] = tested on: LOX IMVI melanoma
[41] = tested on: UO-31 renal
[42] = tested on: NCI-H23 lung
[43] = tested on: SK-MEL-28 melanoma
[44] = tested on: OVCAR-5 ovarian
[45] = tested on: UACC-257 melanoma
[46] = tested on: SF-268 CNS
[47] = tested on: K-562 leukemia
[48] = tested on: OVCAR-3 ovarian
[49] = tested on: HT29 colon
[50] = tested on: NCI/ADR-RES ovarian
[51] = tested on: NCI-H522 lung
[52] = tested on: SF-539 CNS
[53] = tested on: EKVX NSCLC
[54] = tested on: M14 melanoma

Structure (SMILES): COc1cc(-c2n[nH]nc2-c2ccc3c(c2)OCCO3)cc(OC)c1OC
- GI50 [1]: < 0.01 µM
- TGI [1]: > 100 µM
- GI50 [2]: 0.0294 µM
- TGI [2]: > 100 µM
- GI50 [3]: 0.0337 µM
- TGI [3]: > 100 µM
- GI50 [4]: 2.28 µM
- TGI [4]: 21.2 µM
- GI50 [5]: < 0.01 µM
- TGI [5]: 11.2 µM
- GI50 [6]: < 0.01 µM
- TGI [6]: > 100 µM
- GI50 [7]: 0.0104 µM
- TGI [7]: 1.5 µM
- GI50 [8]: 0.0325 µM
- TGI [8]: 11 µM
- GI50 [9]: 0.0201 µM
- TGI [9]: 22.7 µM
- GI50 [10]: < 0.01 µM
- TGI [10]: 18.1 µM
- GI50 [11]: 0.025 µM
- TGI [11]: > 100 µM
- GI50 [12]: < 0.01 µM
- TGI [12]: 42.8 µM
- GI50 [13]: 0.0332 µM
- TGI [13]: 30.3 µM
- GI50 [14]: 0.0609 µM
- TGI [14]: 64.1 µM
- GI50 [15]: < 0.01 µM
- TGI [15]: 0.166 µM
- GI50 [16]: < 0.01 µM
- TGI [16]: 23.9 µM
- GI50 [17]: < 0.01 µM
- TGI [17]: 12.7 µM
- GI50 [18]: 0.0267 µM
- TGI [18]: 0.0774 µM
- GI50 [19]: < 0.01 µM
- TGI [19]: 21.9 µM
- GI50 [20]: 17.6 µM
- TGI [20]: 72.3 µM
- GI50 [21]: 0.0229 µM
- TGI [21]: 22.6 µM
- GI50 [22]: 0.668 µM
- TGI [22]: 64.2 µM
- GI50 [23]: 0.0444 µM
- TGI [23]: > 100 µM
- GI50 [24]: < 0.01 µM
- TGI [24]: > 100 µM
- GI50 [25]: < 0.01 µM
- TGI [25]: 13.5 µM
- GI50 [26]: 0.133 µM
- TGI [26]: > 100 µM
- GI50 [27]: 0.0336 µM
- TGI [27]: 57.1 µM
- GI50 [28]: < 0.01 µM
- TGI [28]: 37.9 µM
- GI50 [29]: 0.0189 µM
- TGI [29]: 0.0824 µM
- GI50 [30]: < 0.01 µM
- TGI [30]: 0.543 µM
- GI50 [31]: < 0.01 µM
- TGI [31]: 0.811 µM
- GI50 [32]: 4.57 µM
- TGI [32]: 34.6 µM
- GI50 [33]: 0.0182 µM
- TGI [33]: 19.3 µM
- GI50 [34]: 0.0418 µM
- TGI [34]: 35 µM
- GI50 [35]: 0.0184 µM
- TGI [35]: 39.4 µM
- GI50 [36]: 0.0399 µM
- TGI [36]: 11.6 µM
- GI50 [37]: 0.0394 µM
- TGI [37]: 17.5 µM
- GI50 [38]: < 0.01 µM
- TGI [38]: > 100 µM
- GI50 [39]: 0.0246 µM
- TGI [39]: 20 µM
- GI50 [40]: 0.0175 µM
- TGI [40]: 37.8 µM
- GI50 [41]: < 0.01 µM
- TGI [41]: 24.6 µM
- GI50 [42]: 0.048 µM
- TGI [42]: 41.7 µM
- GI50 [43]: 2.88 µM
- TGI [43]: 34.8 µM
- GI50 [44]: 2.18 µM
- TGI [44]: > 100 µM
- GI50 [45]: 3.73 µM
- TGI [45]: 23.1 µM
- GI50 [46]: 0.0685 µM
- TGI [46]: > 100 µM
- GI50 [47]: < 0.01 µM
- TGI [47]: > 100 µM
- GI50 [48]: < 0.01 µM
- GI50 [49]: 0.0253 µM
- TGI [49]: 12.3 µM
- GI50 [50]: < 0.01 µM
- TGI [50]: 69.7 µM

Structure (SMILES): O=C(CCCn1cnc([N+](=O)[O-])n1)NCCCn1ccnc1[N+](=O)[O-]
- TGI [3]: > 100 µM
- TGI [5]: > 100 µM
- TGI [6]: > 100 µM
- TGI [7]: > 100 µM
- TGI [8]: > 100 µM
- TGI [9]: > 100 µM
- TGI [10]: > 100 µM
- TGI [12]: > 100 µM
- TGI [14]: > 100 µM
- TGI [15]: > 100 µM
- TGI [16]: > 100 µM
- TGI [19]: > 100 µM
- TGI [20]: > 100 µM
- TGI [21]: > 100 µM
- TGI [22]: > 100 µM
- TGI [51]: > 100 µM
- TGI [24]: > 100 µM
- TGI [25]: > 100 µM
- TGI [26]: > 100 µM
- TGI [52]: > 100 µM
- TGI [28]: > 100 µM
- TGI [29]: > 100 µM
- TGI [31]: > 100 µM
- TGI [53]: > 100 µM
- TGI [32]: > 100 µM
- TGI [33]: > 100 µM
- TGI [34]: > 100 µM
- TGI [35]: > 100 µM
- TGI [36]: > 100 µM
- TGI [37]: > 100 µM
- TGI [38]: > 100 µM
- TGI [39]: > 100 µM
- TGI [42]: > 100 µM
- TGI [43]: > 100 µM
- TGI [44]: > 100 µM
- TGI [45]: > 100 µM
- TGI [46]: > 100 µM
- TGI [47]: > 100 µM
- TGI [48]: > 100 µM
- TGI [49]: > 100 µM

Structure (SMILES): O=c1c2ccccc2nc2n1CCc1c-2[nH]c2ccc(Br)cc12
- TGI [2]: > 100 µM
- TGI [3]: > 100 µM
- TGI [7]: > 100 µM
- TGI [8]: > 100 µM
- TGI [11]: > 100 µM
- TGI [12]: > 100 µM
- TGI [13]: > 100 µM
- TGI [14]: > 100 µM
- TGI [15]: > 100 µM
- TGI [16]: > 100 µM
- TGI [20]: > 100 µM
- TGI [21]: > 100 µM
- TGI [22]: > 100 µM
- TGI [24]: > 100 µM
- TGI [25]: > 100 µM
- TGI [27]: > 100 µM
- TGI [30]: > 100 µM
- TGI [31]: > 100 µM
- TGI [54]: > 100 µM
- TGI [53]: > 100 µM
- TGI [33]: > 100 µM
- TGI [34]: > 100 µM
- TGI [36]: > 100 µM
- TGI [39]: > 100 µM
- TGI [40]: > 100 µM
- TGI [42]: > 100 µM
- TGI [43]: > 100 µM
- TGI [44]: > 100 µM
- TGI [45]: > 100 µM
- TGI [47]: > 100 µM
- TGI [48]: > 100 µM
- TGI [49]: > 100 µM
- TGI [50]: > 100 µM
